According to ChEMBL document CHEMBL3244076, “N,N'-(Phenylene)dioxamic acids and their esters as antiallergy agents” (1978):

How the values were obtained:
Format in all cases: functional
[1] = tested on: Rattus norvegicus; assay: Antiallergic activity in anti-egg albumin homocytotropic antibody-sensitized Sprague-Dawley rat assessed as inhibition of passive cutaneous anaphylaxis reaction at 50 mg/kg, po administered 60 mins prior to antigen egg albumin challenge
[2] = tested on: Rattus norvegicus; assay: Antiallergic activity in anti-egg albumin homocytotropic antibody-sensitized Sprague-Dawley rat assessed as inhibition of passive cutaneous anaphylaxis reaction at 50 mg/kg, po administered 5 mins prior to antigen egg albumin challenge
[3] = tested on: Rattus norvegicus; assay: Antiallergic activity in anti-egg albumin homocytotropic antibody-sensitized Sprague-Dawley rat assessed as inhibition of passive cutaneous anaphylaxis reaction at 50 mg/kg, po administered 20 mins prior to antigen egg albumin challenge
[4] = tested on: Rattus norvegicus; assay: Antiallergic activity in anti-egg albumin homocytotropic antibody-sensitized Sprague-Dawley rat assessed as time of peak action for inhibition of passive cutaneous anaphylaxis reaction at 50 mg/kg, po administered prior to antigen egg albumin challenge
[5] = tested on: Rattus norvegicus; assay: Antiallergic activity in anti-egg albumin homocytotropic antibody-sensitized Sprague-Dawley rat assessed as inhibition of passive cutaneous anaphylaxis reaction at 50 mg/kg, po administered 120 mins prior to antigen egg albumin challenge
[6] = tested on: Rattus norvegicus; assay: Antiallergic activity in anti-egg albumin homocytotropic antibody-sensitized Sprague-Dawley rat assessed as inhibition of passive cutaneous anaphylaxis reaction at 10 mg/kg, po administered 5 mins prior to antigen egg albumin challenge
[7] = tested on: Rattus norvegicus; assay: Antiallergic activity in anti-egg albumin homocytotropic antibody-sensitized Sprague-Dawley rat assessed as inhibition of passive cutaneous anaphylaxis reaction at 10 mg/kg, po administered 20 mins prior to antigen egg albumin challenge
[8] = tested on: Rattus norvegicus; assay: Antiallergic activity in anti-egg albumin homocytotropic antibody-sensitized Sprague-Dawley rat assessed as inhibition of passive cutaneous anaphylaxis reaction at 10 mg/kg, po administered 60 mins prior to antigen egg albumin challenge
[9] = tested on: Rattus norvegicus; assay: Antiallergic activity in anti-egg albumin homocytotropic antibody-sensitized Sprague-Dawley rat assessed as inhibition of passive cutaneous anaphylaxis reaction at 1 mg/kg, iv administered at the time of antigen egg albumin challenge
[10] = tested on: Rattus norvegicus; assay: Antiallergic activity in anti-egg albumin homocytotropic antibody-sensitized Sprague-Dawley rat assessed as inhibition of passive cutaneous anaphylaxis reaction at 0.01 mg/kg, iv administered at the time of antigen egg albumin challenge
[11] = tested on: Rattus norvegicus; assay: Antiallergic activity in anti-egg albumin homocytotropic antibody-sensitized Sprague-Dawley rat assessed as inhibition of passive cutaneous anaphylaxis reaction at 0.1 mg/kg, iv administered at the time of antigen egg albumin challenge
[12] = tested on: Rattus norvegicus; assay: Antiallergic activity in anti-egg albumin homocytotropic antibody-sensitized Sprague-Dawley rat assessed as inhibition of passive cutaneous anaphylaxis reaction at 0.001 mg/kg, iv administered at the time of antigen egg albumin challenge
[13] = tested on: Rattus norvegicus; assay: Antiallergic activity in anti-egg albumin homocytotropic antibody-sensitized Sprague-Dawley rat assessed as inhibition of passive cutaneous anaphylaxis reaction at 50 mg/kg, po administered prior to antigen egg albumin challenge

Row | Compound | inhibition in vivo at 50 mg/kg [1] | inhibition in vivo at 50 mg/kg [2] | inhibition in vivo at 50 mg/kg [3] | inhibition in vivo at 1 mg/kg [9] | inhibition in vivo at 0.1 mg/kg [11] | other results
1 | CCOC(=O)C(=O)Nc1cccc(NC(=O)C(=O)OCC)c1F | 0% | – | – | – | – | –
2 | CCOC(=O)C(=O)Nc1cccc(NC(=O)C(=O)OCC)c1Cl | 1.8% | 53% | 17% | – | – | Time [4]: 5 min
3 | CCOC(=O)C(=O)Nc1cccc(NC(=O)C(=O)OCC)c1C(=O)OC | 15% | – | 27% | – | – | inhibition in vivo at 50 mg/kg [5]: 0%
4 | CCOC(=O)C(=O)Nc1cccc(NC(=O)C(=O)OCC)c1C | – | 28% | 53% | – | – | –
5 | CCOC(=O)C(=O)Nc1cccc(NC(=O)C(=O)OCC)c1OC | 22% | 72% | 11% | – | – | –
6 | CCOC(=O)C(=O)Nc1ccc(C)c(NC(=O)C(=O)OCC)c1 | 12% | 17% | 38% | – | – | –
7 | CCCCc1ccc(NC(=O)C(=O)OCC)cc1NC(=O)C(=O)OCC | 5% | 0% | 0% | – | – | inhibition in vivo at 50 mg/kg [5]: 0%
8 | CCOC(=O)C(=O)Nc1ccc(OC)c(NC(=O)C(=O)OCC)c1 | 11% | 50% | 70% | – | – | inhibition in vivo at 50 mg/kg [5]: 45%
9 | CCOC(=O)C(=O)Nc1ccc(C#N)c(NC(=O)C(=O)OCC)c1 | – | – | – | – | – | inhibition in vivo at 10 mg/kg [6]: 7%; inhibition in vivo at 10 mg/kg [7]: 19%; inhibition in vivo at 10 mg/kg [8]: 19%
10 | CCOC(=O)C(=O)Nc1ccc(F)c(NC(=O)C(=O)OCC)c1 | 18% | 74% | 64% | – | – | –
11 | CCOC(=O)C(=O)Nc1cc(NC(=O)C(=O)OCC)cc(OC)c1 | 0% | – | 4% | – | – | inhibition in vivo at 50 mg/kg [5]: 29%
12 | CCOC(=O)C(=O)Nc1cc(NC(=O)C(=O)OCC)cc(C(=O)O)c1 | 0% | 14% | 0% | – | – | inhibition in vivo at 50 mg/kg [5]: 20%
13 | CCOC(=O)C(=O)Nc1cc(NC(=O)C(=O)OCC)cc([N+](=O)[O-])c1 | 6% | 0% | 0% | – | – | –
14 | CCOC(=O)C(=O)Nc1cc(NC(=O)C(=O)OCC)cc(NC(=O)C(=O)OCC)c1 | 5% | – | 0% | – | – | inhibition in vivo at 50 mg/kg [5]: 0%
15 | CCOC(=O)C(=O)Nc1cc(NC(C)=O)cc(NC(=O)C(=O)OCC)c1 | 0% | 6% | 1% | – | – | inhibition in vivo at 50 mg/kg [5]: 24%
16 | CCOC(=O)C(=O)Nc1cc(C)cc(NC(=O)C(=O)OCC)c1Cl | 0% | – | 26% | – | – | inhibition in vivo at 50 mg/kg [5]: 3%
17 | CCOC(=O)C(=O)Nc1cc(C(=O)O)cc(NC(=O)C(=O)OCC)c1Cl | 15% | 15% | 41% | – | – | inhibition in vivo at 50 mg/kg [5]: 9%
18 | CCOC(=O)C(=O)Nc1cc(C(=O)OC)cc(NC(=O)C(=O)OCC)c1Cl | 0% | – | 7% | – | – | inhibition in vivo at 50 mg/kg [5]: 0%
19 | CCOC(=O)C(=O)Nc1cc(C(N)=O)cc(NC(=O)C(=O)OCC)c1Cl | – | 85% | 49% | – | – | –
20 | CCOC(=O)C(=O)Nc1cc(C(C)=O)cc(NC(=O)C(=O)OCC)c1Cl | 37% | – | 14% | – | – | inhibition in vivo at 50 mg/kg [5]: 31%
21 | CCOC(=O)C(=O)Nc1cc(C(F)(F)F)cc(NC(=O)C(=O)OCC)c1Cl | 4% | 10% | 10% | – | – | –
22 | CCOC(=O)C(=O)Nc1cc(S(C)(=O)=O)cc(NC(=O)C(=O)OCC)c1Cl | 0% | 0% | 0% | – | – | –
23 | CCOC(=O)C(=O)Nc1cc(-c2ccccc2)cc(NC(=O)C(=O)OCC)c1Cl | – | 25% | 25% | – | – | –
24 | CCOC(=O)C(=O)Nc1c([N+](=O)[O-])cc([N+](=O)[O-])c(NC(=O)C(=O)OCC)c1Cl | 0% | – | 25% | – | – | –
25 | CCOC(=O)C(=O)Nc1cc(C(=O)O)cc(NC(=O)C(=O)OCC)c1C | 0% | 0% | 0% | – | – | inhibition in vivo at 50 mg/kg [5]: 0%
26 | CCOC(=O)C(=O)Nc1cc(C(F)(F)F)cc(NC(=O)C(=O)OCC)c1C#N | 0% | 50% | 25% | – | – | –
27 | CCOC(=O)C(=O)Nc1cc(C(=O)OC)c(Cl)c(NC(=O)C(=O)OCC)c1Cl | 0% | – | 0% | – | – | inhibition in vivo at 50 mg/kg [5]: 0%

Row | Compound | inhibition in vivo at 50 mg/kg [1] | inhibition in vivo at 50 mg/kg [2] | inhibition in vivo at 50 mg/kg [3] | inhibition in vivo at 1 mg/kg [9] | inhibition in vivo at 0.1 mg/kg [11] | other results
28 | CCOC(=O)C(=O)Nc1cc(NC(=O)C(=O)OCC)c(Cl)cc1Cl | 25% | – | 50% | – | – | –
29 | CCOC(=O)C(=O)Nc1cc(NC(=O)C(=O)OCC)c([N+](=O)[O-])cc1[N+](=O)[O-] | 9% | – | 17% | – | – | –
30 | CCOC(=O)C(=O)Nc1cc(C#N)c(Cl)c(NC(=O)C(=O)OCC)c1 | 0% | 100% | 20% | – | – | –
31 | CCOC(=O)C(=O)Nc1cc(NC(=O)C(=O)OCC)c(Cl)c(-c2ccccc2)c1 | 51% | 72% | 10% | – | – | –
32 | O=C(O)C(=O)Nc1cccc(NC(=O)C(=O)O)c1 | – | – | – | 82% | 73% | inhibition in vivo at 0.01 mg/kg [10]: 0%
33 | O=C(O)C(=O)Nc1cccc(NC(=O)C(=O)O)c1Cl | – | – | – | 75% | 32% | –
34 | COc1ccc(NC(=O)C(=O)O)cc1NC(=O)C(=O)O | – | – | – | 100% | 0% | –
35 | N#Cc1ccc(NC(=O)C(=O)O)cc1NC(=O)C(=O)O | – | – | – | 87% | 8% | –
36 | O=C(O)C(=O)Nc1ccc(F)c(NC(=O)C(=O)O)c1 | – | – | – | 100% | 41% | –
37 | NC(=O)c1cc(NC(=O)C(=O)O)cc(NC(=O)C(=O)O)c1 | – | – | – | 91% | 17% | –
38 | N#Cc1cc(NC(=O)C(=O)O)cc(NC(=O)C(=O)O)c1 | – | – | – | – | 90% | inhibition in vivo at 0.01 mg/kg [10]: 57%
39 | CC(=O)Nc1cc(NC(=O)C(=O)O)cc(NC(=O)C(=O)O)c1 | – | – | – | 47% | 11% | inhibition in vivo at 0.01 mg/kg [10]: 0%
40 | Cc1cc(NC(=O)C(=O)O)c(Cl)c(NC(=O)C(=O)O)c1 | – | – | – | 100% | 91% | inhibition in vivo at 0.01 mg/kg [10]: 20%; inhibition in vivo at 0.001 mg/kg [12]: 2%
41 | NC(=O)c1cc(NC(=O)C(=O)O)c(Cl)c(NC(=O)C(=O)O)c1 | – | – | – | 90% | 28% | inhibition in vivo at 0.01 mg/kg [10]: 0%
42 | CC(=O)c1cc(NC(=O)C(=O)O)c(Cl)c(NC(=O)C(=O)O)c1 | – | – | – | 88% | 22% | inhibition in vivo at 0.01 mg/kg [10]: 0%
43 | O=C(O)C(=O)Nc1cc(C(F)(F)F)cc(NC(=O)C(=O)O)c1Cl | – | – | – | – | 100% | inhibition in vivo at 0.01 mg/kg [10]: 90%; inhibition in vivo at 0.001 mg/kg [12]: 0%
44 | O=C(O)C(=O)Nc1cc(-c2ccccc2)cc(NC(=O)C(=O)O)c1Cl | – | – | – | 94% | 87% | inhibition in vivo at 0.01 mg/kg [10]: 44%
45 | O=C(O)C(=O)Nc1cc(NC(=O)C(=O)O)c(Cl)cc1Cl | – | – | – | 81% | 25% | inhibition in vivo at 0.01 mg/kg [10]: 0%
46 | N#Cc1cc(NC(=O)C(=O)O)cc(NC(=O)C(=O)O)c1Cl | – | – | – | 100% | 100% | inhibition in vivo at 0.01 mg/kg [10]: 20%; inhibition in vivo at 0.001 mg/kg [12]: 0%
47 | O=C(O)C(=O)Nc1cc(CS(=O)O)cc(NC(=O)C(=O)O)c1Cl | – | – | – | 85% | 10% | –
48 | CCCCOC(=O)C(=O)Nc1cc(C#N)cc(NC(=O)C(=O)OCCCC)c1Cl | – | – | – | – | – | Time [4]: 5 min; inhibition in vivo at 50 mg/kg [13]: 100%
49 | CCCCCCOC(=O)C(=O)Nc1cc(C#N)cc(NC(=O)C(=O)OCCCCCC)c1Cl | – | – | – | – | – | Time [4]: 5 min; inhibition in vivo at 50 mg/kg [13]: 51%
50 | N#Cc1cc(NC(=O)C(=O)OC23CC4CC(CC(C4)C2)C3)c(Cl)c(NC(=O)C(=O)OC23CC4CC(CC(C4)C2)C3)c1 | – | – | – | – | – | Time [4]: 60 min; inhibition in vivo at 50 mg/kg [13]: 50%
51 | O=C(O)C(=O)Nc1ccc(NC(=O)C(=O)O)cc1 | – | – | – | 18% | – | –
52 | N#Cc1cc(NC(=O)C(=O)O)ccc1NC(=O)C(=O)O | – | – | – | 45% | – | –
53 | O=C(O)C(=O)Nc1cc(Cl)c(NC(=O)C(=O)O)cc1Cl | – | – | – | 73% | – | –
